The values below come from patent publication US20050255042A1, “On-demand cleavable linkers for radioconjugates for cancer imaging and therapy” (The Regents of the University of California Office of …, priority 2003, published 2005).

The conditions of data set [1]: 1.25 mg/kg body weight over 3 hours; 8 of 73 patients; cited from earlier work.
The conditions of data set [2]: in vivo; cited from earlier work.
The target of the next data set is t-PA (Homo sapiens, UniProt P00750). The following applies: cited from earlier work.
Sequence of t-PA (P00750 36-562, species assumed): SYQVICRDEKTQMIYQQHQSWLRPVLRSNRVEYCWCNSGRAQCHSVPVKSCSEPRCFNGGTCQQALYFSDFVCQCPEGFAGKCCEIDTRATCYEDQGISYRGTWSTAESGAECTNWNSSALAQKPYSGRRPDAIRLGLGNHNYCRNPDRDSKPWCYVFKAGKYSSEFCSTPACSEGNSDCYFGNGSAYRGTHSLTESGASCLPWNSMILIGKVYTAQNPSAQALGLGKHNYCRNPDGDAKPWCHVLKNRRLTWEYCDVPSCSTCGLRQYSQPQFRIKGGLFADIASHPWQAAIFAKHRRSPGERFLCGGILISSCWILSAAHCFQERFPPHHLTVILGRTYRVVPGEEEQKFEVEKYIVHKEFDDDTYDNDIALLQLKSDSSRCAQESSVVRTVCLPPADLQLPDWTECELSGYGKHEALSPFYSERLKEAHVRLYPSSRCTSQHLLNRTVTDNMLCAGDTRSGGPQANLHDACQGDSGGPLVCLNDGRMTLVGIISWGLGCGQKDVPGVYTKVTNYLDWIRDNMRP
Another data set deals with T1, TNKase® (Homo sapiens, UniProt P00750, H332A/K331A/N152Q/R333A/R334A/T138N).
T1 construct: Activase® is a purified glycoprotein of 527 amino acids produced by recombinant DNA technology; purchased Genentech; host or cells: Chinese Hamster Ovary cells
T1 sequence (P00750 36-562 T138N/N152Q/K331A/H332A/R333A/R334A): as the sequence (P00750 36-562, species assumed) above, with T103N, N117Q, K296A, H297A, R298A, R299A counted along it
Description: Cleavage of soluble peptides in plasma plus TNKase®, fluorescence plate reader. It counts as biochemical. The procedure: (§1) The peptides in Table 3 were re-synthesized in soluble form with nitrotyrosine (Y(NO2) at the N-terminus and Abz at the ε-amino group of the lysine residue (k(Abz)) at the C-terminus. They were then incubated with human plasma alone or plasma plus TNKase® in a 96-well plate and the cleavage reaction was monitored over a period of time with a fluorescent plate reader. Each well contained 90 μM of peptides, 10 μl of plasma in PBS, ph 7.2, with or without 1 μg of TNKase®, in a final volume of 100 μl. Cleavage was measured as fluorescence intensity at different time intervals in the fluorescence plate reader at 360/440 nm excitation and emission range.

A short description of data set [3]: Cleavage of soluble peptides in human plasma alone, fluorescence plate reader. The settings on record: 90 μM peptide, 10 μl plasma in PBS pH 7.2, without TNKase®. Format: in vitro ADME. The procedure: as §1

On to “Activase®: purified recombinant t-PA glycoprotein of 527 amino acids, from Genentech”, for which the “patients with a decrease in fibrinogen to below 100 mg/dl” value in data set [1] is listed as 11%. In addition, in data set [2], the initial plasma half-life is 5 min and the plasma clearance was 380 to 570 mL/min.
Turning to GGSG PFGR↓SA LVPEE, on t-PA, the “hydrolysis efficiency by t-PA versus a peptide of similar length from the native cleavage site of plasminogen” value was 5000 fold.
On to rqYKYkf [compound 20], for which, on TNKase® (10 μg/ml TNKase®), the “time to complete degradation by TNKase®” value was not above 2 h. Besides, at TNKase® (10 μg/ml TNKase®, two hours), the “degradation on incubation with TNKase®” value is on record as “completely degraded”. The “susceptibility to TNKase® cleavage” value on TNKase® (plasma plus TNKase®) was “rapidly degraded”. In data set [3], the “stability / cleavage in human plasma” value was “completely stable”.
